Measured values from patent publication US9920074B2 (ACEA BIOSCIENCES INC., priority 2013, dated 2018).
Entries after “also recorded” stand apart in the source; their conditions may differ. Read-outs that look alike come from different tables or passages of the source.

Legend:
Assay type in all cases: cell-based
[1] = target: T1, Btk phosphorylation in Ramos cells (Homo sapiens, UniProt Q06187); assay: Pulse chase western blotting assay for irreversibility / binding property; settings: 100 nM for 45 mins, monitored 4, 6 and 8 h post removal
T1 construct: endogenous in cells; host or cells: Ramos cells (ATCC)
T1 sequence (Q06187 whole entry): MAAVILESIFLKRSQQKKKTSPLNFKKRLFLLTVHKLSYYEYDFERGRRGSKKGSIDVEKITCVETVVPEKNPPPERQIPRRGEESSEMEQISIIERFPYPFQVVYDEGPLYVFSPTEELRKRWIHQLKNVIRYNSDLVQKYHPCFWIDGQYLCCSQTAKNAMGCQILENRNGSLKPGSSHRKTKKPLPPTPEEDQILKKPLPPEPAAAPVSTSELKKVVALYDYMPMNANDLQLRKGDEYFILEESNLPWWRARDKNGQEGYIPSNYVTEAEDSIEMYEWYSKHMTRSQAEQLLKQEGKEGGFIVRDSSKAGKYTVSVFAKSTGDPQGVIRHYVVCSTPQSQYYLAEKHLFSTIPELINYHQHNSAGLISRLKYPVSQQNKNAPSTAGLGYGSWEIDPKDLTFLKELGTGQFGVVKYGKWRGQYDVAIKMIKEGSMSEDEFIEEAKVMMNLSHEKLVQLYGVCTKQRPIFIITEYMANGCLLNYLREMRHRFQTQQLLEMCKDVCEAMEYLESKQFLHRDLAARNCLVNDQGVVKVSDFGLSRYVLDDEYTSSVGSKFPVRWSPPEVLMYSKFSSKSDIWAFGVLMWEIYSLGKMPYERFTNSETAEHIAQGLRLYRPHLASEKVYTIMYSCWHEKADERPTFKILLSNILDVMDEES
Description: Ramos cells were treated with Compound I-1 at 100 nM for 45 min. Cells were then re-suspended in compound free media and stimulated with 6 μg/ml IgM at 0, 4, 6 or 8 hours after compound removal. Cells were then lysed after 30 mm IgM stimulation. West blotting analysis were then performed.
Ramos cells were treated with Compounds at 100 nM for 45 min. Cells were then re-suspended in compound free media and stimulated with 6 μg/ml anti-IgM at 0, 4, 6 or 8 hours after compound removal. Cells were then lysed after 30 mm anti-IgM stimulation. Western blotting analysis was then performed.

[2] = target: T2, Jak3 phosphorylation in NK-92 cells (Homo sapiens, UniProt P52333); assay: Western blotting assay for Jak3; settings: 1 hour, IL-2 stimulation, read-out: Jak3 inhibition
T2 construct: endogenous in cells; host or cells: NK-92 cells (ATCC)
T2 sequence (P52333 1-1124): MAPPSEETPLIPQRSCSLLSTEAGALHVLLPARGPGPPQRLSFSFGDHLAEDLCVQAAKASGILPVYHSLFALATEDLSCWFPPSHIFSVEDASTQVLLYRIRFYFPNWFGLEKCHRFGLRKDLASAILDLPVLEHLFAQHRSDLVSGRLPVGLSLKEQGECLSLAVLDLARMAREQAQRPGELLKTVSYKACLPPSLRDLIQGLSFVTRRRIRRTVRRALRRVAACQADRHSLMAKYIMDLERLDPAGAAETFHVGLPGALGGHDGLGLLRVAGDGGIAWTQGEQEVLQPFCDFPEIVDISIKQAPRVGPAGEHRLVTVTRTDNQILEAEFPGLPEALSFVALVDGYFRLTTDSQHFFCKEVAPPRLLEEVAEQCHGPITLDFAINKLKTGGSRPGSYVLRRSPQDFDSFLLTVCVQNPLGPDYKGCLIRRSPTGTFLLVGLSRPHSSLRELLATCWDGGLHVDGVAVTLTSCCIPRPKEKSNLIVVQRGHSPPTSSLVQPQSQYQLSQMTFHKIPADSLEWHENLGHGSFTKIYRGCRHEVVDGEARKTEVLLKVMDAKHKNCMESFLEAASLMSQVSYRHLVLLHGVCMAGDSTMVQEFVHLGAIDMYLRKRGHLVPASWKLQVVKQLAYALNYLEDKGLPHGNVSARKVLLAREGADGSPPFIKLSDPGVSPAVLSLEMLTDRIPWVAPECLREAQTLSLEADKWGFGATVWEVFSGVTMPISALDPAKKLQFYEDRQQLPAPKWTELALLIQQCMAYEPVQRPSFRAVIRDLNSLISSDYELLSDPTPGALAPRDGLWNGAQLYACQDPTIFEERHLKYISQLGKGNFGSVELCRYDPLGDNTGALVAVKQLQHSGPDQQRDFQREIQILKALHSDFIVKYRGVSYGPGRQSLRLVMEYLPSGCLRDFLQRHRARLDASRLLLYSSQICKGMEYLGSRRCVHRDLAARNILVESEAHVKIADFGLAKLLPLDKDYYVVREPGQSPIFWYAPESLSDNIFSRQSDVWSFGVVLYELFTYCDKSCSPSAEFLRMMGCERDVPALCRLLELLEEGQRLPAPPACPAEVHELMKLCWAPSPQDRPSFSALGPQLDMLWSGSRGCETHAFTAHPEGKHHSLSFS
Description: All cell lines were obtained from the American Type Culture Collection and were maintained at 37° C. with 5% CO2. Ramos cell line was maintained in media supplemented with 10% fetal bovine serum, penicillin (100 units/mL) and streptomycin (100 μg/mL). NK-92 cell line was maintained in media supplemented with 10% fetal bovine serum and 10% horse serum, penicillin (100 units/mL) and streptomycin (100 μg/mL), IL-2 10 ng/mL. Goat F(ab′)2 Anti-Human IgM-UNLB was obtained from SouthernBiotech. IL-2 was obtained from Peprotech.
NK-92 cells were treated with compounds at the dosed indicated for 1 hour in incubator, followed by the IL-2 stimulation for 15 minutes. Cells were then collected and lysed to prepare the cellular extraction. Western blots were performed on cell lysate using Phospho-Jak3, Jak3, Phospho-Stat5, Stat5 antibodies (Cell Signaling Technology). The intensity of blotting band was acquired using Image Lab (Bio-Rad) software, and the IC50 of target was generated with GraphPad Prism.

[3] = test system: Stat5 phosphorylation in NK-92 cells; assay: Western blotting assay for Stat5; settings: NK92, 1 hour, IL-2 stimulation, read-out: Stat5 inhibition
In short: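 NK-92 cells, maintained with IL-2, were pre-treated with compound for 1 h, then stimulated with IL-2 for 15 min. Lysates were western blotted for phospho- and total Jak3 and Stat5. IC50 came from densitometry of phospho-band intensity.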

[4] = target: T3, Btk (Tyr223) phosphorylation in Ramos cells (Homo sapiens, UniProt Q06187); assay: Btk Tyr223 phosphorylation inhibition, western blotting assay (Example 72)
T3 construct: endogenous in cells; host or cells: Ramos cells (ATCC)
T3 sequence (Q06187 whole entry): as the sequence (Q06187 whole entry) above
Description: Ramos cell line was obtained from the American Type Culture Collection and was maintained at 37° C. with 5% CO2, in media supplemented with 10% fetal bovine serum, penicillin (100 units/mL) and streptomycin (100 μg/mL), Goat F(ab′)2 Anti-Human IgM-UNLB was obtained from SouthernBiotech.
Ramos cells were treated with compounds at indicated doses for 45 min at room temperature, followed by stimulation of 12 μg/mL of IgM for 30 min, and then lysed. Western blots were performed on the cell lysate using Phospho-Btk (Tyr223), Phospho-Btk (Tyr551), Btk, Phospho-PLCγ2 (Tyr1217), PLCγ2, Phospho-p44/42 MAPK (Erk1/2) (Thr202/Tyr204) and p44/42 MAPK (Erk1/2) antibodies (Cell Signaling Technology). The density of blotting band was acquired using ImageJ software, and the IC50 of Btk (Tyr223) phosphorylation was fitted using a non-linear regression model by GraphPad Prism version 4.0.

**Q.** `C=CC(=O)Nc1cccc(Oc2nc(Nc3ccc(N4CCN(C)CC4)cc3)ncc2OC)c1` [Compound I-1, N-(3-(5-methoxy-2-(4-(4-methylpiperazin-1-yl)phenylamino)pyrimidin-4-yloxy)phenyl)acrylamide] was tested. Which “inhibition of BTK phosphorylation after compound removal (irreversibility)” value [1] did it give?
**A.** remains inhibited up to 8 his; also recorded: long term effect of the inhibition was observed after compounds removal up to 8 hours; also recorded: remains inhibited up to 8 hrs; also recorded: irreversibly inhibited the BTK phosphorylation; also recorded: inhibited the Btk phosphorylation in Ramos cells after 8 hours of removal

**Q.** What about the IC50 [2] of the same compound?
**A.** ≤ 200 nM

**Q.** And the IC50 [3]?
**A.** ≥ 400 nM

**Q.** And the IC50 ([4]; Btk Tyr223 phosphorylation, 45 min, 12 μg/mL IgM, read-out: BTK Inhibition)?
**A.** < 10 nM

**Q.** And the IC50 ([4]; treated 45 mins, read-out: inhibition IC50 of the phosphorylation of BTK protein)?
**A.** 1.1 nM

**Q.** What about the “reduction of the Btk Tyr223 phosphorylation in Ramos cells” value ([4]; western blot) of the same compound?
**A.** reduction of the Btk Tyr223 phosphorylation; also recorded: dose-dependent inhibition of the BTK phosphorylation
